Test results: US9037230B2, “Method and device for treating microscopic tumors remaining in tissues following surgical resection” (OncoSec Medical Incorporated, priority 2006, dated 2015)

Key:
[1] = test system: HT-29 human colon carcinoma cells; assay: Tumor recurrence after surgery and Bleomycin electroporation therapy (EPT) in nude mice with HT-29 tumors; format: in vivo; settings: for % efficacy (animals that did NOT experience tumor growth post treatment): three weeks after treatment
Protocol: In this example, a series of experiments were performed in mice wherein tumor recurrence rates were determined after surgery alone or after surgery and EPT. Specifically, this experiment comprises an in vivo study to establish the efficacy of EPT on surgical margin treatment in nude mice after subcutaneous introduction of HT-29 human colon carcinoma cells and resection of the tumors that arise from such introduction. The experiment was conducted under humane conditions with respect to treatment of the test animals.
The experimental design was as follows. Normal Athymic Nude female mice 4-6 weeks of age were placed in 8 groups of six mice each, except for Group 1 which comprised 10 animals and Group 3 comprising 7 animals. The HT-29 cell line is derived from a human colon carcinoma and is an aggressive fast-growing tumor in mice. In each group the animals received HT-29 human tumor cells in the form of two adjacent inocula of 5×10^6 cells using a 21 gauge needle and syringe. The HT-29 cell line was obtained from […] (#HTB-38), grown in McCoy's 5a medium (modified) with 1.5 mM L-glutamine adjusted to contain 2.2 g/L sodium bicarbonate, 90%, and fetal bovine serum, 10%. Cells were divided 1:2 to 1:4 on growth cycles until sufficient cells were available to use in this experiment.
Following inoculation the tumors became established at the site of the inoculations. The tumor volume on each animal was monitored regularly and calculated using the formula: Tumor volume=(a^2×b/2) where ‘a’ is the smallest diameter and ‘b’ is the largest diameter perpendicular to ‘a’. Tumors were measured three times per week starting from the day the tumors were palpable by hand. The tumors were allowed to progress until the size was between 500 and 1500 cubic millimeters. Surgical tumor removal, partial removal, or no removal was then performed in association with either EPT or no EPT. In these experiments EPT means treatment with Bleomycin and electroporation (EP). The EP, where performed, was conducted with one pulse cycle (i.e., 6 pulses at 4 Hz) per electrode insertion using a standard MedPulser generator (Genetronics, Inc. San Diego, Calif.) and an applicator with a disposable six needle array of 1 cm diameter, a distance between electrodes of 0.86 cm, and 1 cm needle length. […] The needle array was inserted percutaneously and essentially perpendicular to the surface of the flank of the mouse carrying the tumor. Alternatively, in those cases where the tumor was excised first, followed by i.v. injection of Bleomycin and then by EP, the needle electrode array was inserted percutaneously encompassing the surgical wound area (Groups 5-8).
Where Bleomycin was used in the experiment, it was injected at 4 U/ml saline (1U=1 mg) as uniformly as possible into tumor and margin tissues, as indicated, at a dose of 0.25 ml/cm^3 volume of tissue to be treated. Alternatively, where indicated, a corresponding amount of Bleomycin was injected into the tail vein.
The experiment used 8 cohorts of at least 6 mice each. Each cohort was subjected to a treatment regimen of a combination of any of EP, Bleomycin, saline instead of Bleomycin, complete tumor excision, partial tumor excision, and no tumor excision. Tables II and III disclose the treatment regimens.
For experiments on animals listed in Table II, the animals were anaesthetized, followed by removal or partial removal of the tumor as indicated, followed in turn by intraveneous (i.v.) injection of Bleomycin or saline. The Bleomycin dose was dependent on tumor size as described above. After 3 to 4 minutes, the animals indicated were treated with EP followed by closure of the wound with clips and surgical adhesive. In cohort 1, the entire tumor was surgically removed (see, for example FIGS. 12B and C) and the animals treated with Bleomycin and EP. In cohort 2, the tumors were removed from the animals but only saline was injected instead of Bleomycin and no EP was performed. […]

[2] = Breaking strength of healing skin incisions in swine after Bleomycin with or without electroporation; format: in vivo
Protocol: (§1) In this experiment eighteen transcutaneous incisions were made into the dorsal muscles in each of eight pig test animals grouped 1-6. In study groups 1-5, longitudinal incisions were made while in group 6 the incisions were transverse to the longitudinal orientation of the muscle fiber. At each incision site, either nothing, normal saline, or Bleomycin in solution was injected such that injections were placed to a 1 cm depth and spaced at 1 cm distances from one another with three injections, one on each side of each incision within 3 cm of each other and one in the center of the incision. Bleomycin, an anti-cancer agent, was used wherein each injection consisted of 0.125 ml (4 units/ml saline). The incisions were then treated with bipolar pulses of 530 V, 100 μsec each, from a pulse generator using a 6-needle electrode array of 0.5 cm diameter (nominal field strength for each pulse was 1,233 V/cm).
(§2) Specifically, 8 male Yorkshire/Hampshire cross swine (40-50 kg) were acclimated 5-7 days prior to surgery. Incision locations were marked on the dorsum using sterile surgical markers. Each incision was 5 cm long and made to a depth of 5 mm into the muscle. All animals in groups 1-5 received 18 longitudinal incisions each, while animals in group 6 received transverse incisions, in accordance with Table I. Each study group comprised 24 incisions.
Injections of a total volume of 1.5 ml of saline or Bleomycin (6 U) were administered at 12 sites per incision, 6 in the muscle and 6 in the skin. Incisions treated with electroporation were electroporated using a 0.5 cm diameter, 1.5 cm long needle array. On each side of the muscle incision, electroporation was given 3 times in the central 3 cm of the incision, each electroporation site being 1 cm apart from the other. Skin was not electroporated. The epimysium was closed with 4-0 Vicryl absorbable interrupted sutures. The skin was closed with 4-0 nylon interrupted sutures. Swine were sacrificed at 2 d, 1 wk, 2 wks, or 3 wks following surgery. Histology specimens containing skin and at least 5 mm depth of underlying muscle were taken from the center of the incision and immediately placed in 10% neutral buffered formalin. An additional control specimen was taken from non-incised skin on the dorsum. After staining and sectioning, skin, subcutaneous tissue, and muscle were graded histologically on a 0-3 scale using the following parameters: Healing, Granulations/Fibrosis, PMN's, Lymphocytes, Histiocytes, Necrosis, Hemorrhage and Atypical Cells.
Mechanical testing was performed on strips of skin removed from the center of the incision at three different time points, namely, Days 7, 14, and 21. […] Breaking strength was determined by plotting the […] versus the strain for each incision up to the breaking point. […]

[3] = Histological evaluation of incision healing (skin, subcutaneous tissue, muscle) in swine; format: in vivo
Protocol: as §1, §2
Injections of a total volume of 1.5 ml of saline or Bleomycin (6 U) were administered at 12 sites per incision, 6 in the muscle and 6 in the skin. Incisions treated with electroporation were electroporated using a 0.5 cm diameter, 1.5 cm long needle array. On each side of the muscle incision, electroporation was given 3 times in the central 3 cm of the incision, each electroporation site being 1 cm apart from the other. Skin was not electroporated. The epimysium was closed with 4-0 Vicryl absorbable interrupted sutures. The skin was closed with 4-0 nylon interrupted sutures. Swine were sacrificed at 2 d, 1 wk, 2 wks, or 3 wks following surgery. […]

[4] = test system: HT-29 human colon carcinoma cells; settings: stated as known, not tested; cited from earlier work
[5] = test system: HT-29 human colon carcinoma cells; assay: Gross consistency of HT-29 tumors excised at various times after Bleomycin-EPT; format: in vivo, mice
Protocol: For this purpose, three additional cohort Groups 9, 10, and 11 were used.
The animals of Group 9 were anaesthetized followed by complete excision of the tumors. The tumors were examined for consistency and preserved in formalin for later histological evaluation, as were the tumor tissues of cohorts 10 and 11. Anaesthetized animals of cohort 10 were subjected to intratumoral administration of Bleomycin solution at a dose and volume as described above. EP was performed 10 minutes after drug administration. Tumors were excised 2 hrs after EP. Animals of cohort 11 were treated as those in cohort 10 except that their tumors were completely removed at 24 hrs after EP. All wounds were closed as described above. Results
With respect to cohorts 9-11, we observed that the consistency of the tumor changed progressively with time after treatment. […] At that time point surgical excision was somewhat difficult because the boundaries of the tumor were ill defined as compared to the solid tumor tissue mass of cohort 9 animals. […] These observations provide proof of the opportunity of using drug, such as Bleomycin or other anticancer agent, in combination with EPT as adjuvant or tumor debulking therapy that can additionally be used alone or in conjunction with other cancer therapies. For example, a tumor could be treated with Bleomycin-EPT, the disintegrated tumor material be removed by a simple minimally invasive procedure, and if desired, followed by conventional treatments such as radiation or chemotherapy, or other tumor therapy modalities. Easy removal of the liquefied tumor material can also allow the wound to heal faster and with fewer complications, especially in the case of large tumors.

Bleomycin
% efficacy (animals that did NOT experience tumor growth post treatment) ([1]; Group 1: complete tumor excision, Bleomycin i.v., EP): 90%
tumor recurrence at the site of treatment ([1]; Group 1: complete tumor removal, Bleomycin-EP, 3 weeks post treatment (FIG. 12)): no tumor recurred
% efficacy (animals that did NOT experience tumor growth post treatment) ([1]; Group 3: partial tumor excision, Bleomycin i.v., EP): 67%
% efficacy (animals that did NOT experience tumor growth post treatment) ([1]; Group 5: Bleomycin intratumoral, EP, complete tumor excision 15 minutes later): 100%
% efficacy (animals that did NOT experience tumor growth post treatment) ([1]; Group 6: no tumor excision, Bleomycin intratumoral, EP): 80%
% efficacy (animals that did NOT experience tumor growth post treatment) ([1]; Group 7: Bleomycin intratumoral, EP, partial tumor excision 15 minutes later): 100%
tumor recurrence ([1]; Group 7: partial tumor removal, Bleomycin i.t. and EP, 3 weeks (FIG. 13)): no tumor recurrence
% efficacy (animals that did NOT experience tumor growth post treatment) ([1]; Group 8: no tumor excision, Bleomycin intratumoral, partial (off-centered) EP): 67%
tumor recurrence ([1]; cohorts 5 and 7: Bleomycin i.t. and EP, excision 15 minutes after treatment): no tumor recurrence
reduction of breaking strength of skin incisions compared to non-Bleomycin groups ([2]; 1 week post-incision, all three Bleomycin treated groups (with or without EP)): 90%
wound strength (breaking point), difference between saline and Bleomycin with or without EP ([2]; three weeks post incision, FIG. 1): no substantial difference
breaking strength of skin incisions, difference between groups ([2]; week 2, longitudinal incisions, Bleomycin with or without EP (Groups 4, 5) vs Groups 1-3): no significant differences between Groups 1-5
breaking strength of skin incisions, difference between groups ([2]; week 3, Group 6, transverse incisions with Bleomycin and EP vs Groups 1-5): significantly lower breaking strength
muscle necrosis, Bleomycin plus EP vs Bleomycin ([3]; 2 weeks, difference disappeared by 3 weeks): significant increase in muscle necrosis
histological changes ([3]; day 7, Bleomycin groups): statistically significant changes
histology compared with controls ([3]; day 21, all Bleomycin injected samples): comparable with saline-injected controls
antitumoral activity of Bleomycin administration without EP [4]: no significant antitumoral activity
consistency of the tumor ([5]; cohort 10: excised two hours after i.t. Bleomycin-EP): softer, less well defined
consistency of the tumor ([5]; cohort 11: excised 24 hrs after i.t. Bleomycin-EP): completely softened
consistency of the tumor ([5]; cohorts 5 and 7: removed 15 minutes after i.t. Bleomycin-EP): softening of the tumor
